≈ marks a conversion by molar mass, not a printed value. Calls of active or inactive are those of the source. The rule behind the calls is not given here.
Tests used:
[1] = system: Staphylococcus epidermidis; experiment: Antibacterial activity against Staphylococcus epidermidis ATCC 12228 after 24 hrs by 2-fold microtiter broth dilution method; type: functional; conditions: ATCC 12228, 24 h
[2] = system: Bacillus subtilis; experiment: Antibacterial activity against Bacillus subtilis ATCC 6633 after 24 hrs by 2-fold microtiter broth dilution method; type: functional; conditions: ATCC 6633, 24 h
[3] = system: Micrococcus luteus; experiment: Antibacterial activity against Micrococcus luteus ATCC 9341 after 24 hrs by 2-fold microtiter broth dilution method; type: functional, organism-based
[4] = system: Staphylococcus aureus; experiment: Antibacterial activity against Staphylococcus aureus ATCC 6538 after 24 hrs by 2-fold microtiter broth dilution method; type: functional, organism-based
[5] = system: Escherichia coli; experiment: Antibacterial activity against Escherichia coli ATCC 11775 after 24 hrs by 2-fold microtiter broth dilution method; type: functional, organism-based
[6] = system: Salmonella typhimurium; experiment: Antibacterial activity against Salmonella Typhimurium ATCC 14028 after 24 hrs by 2-fold microtiter broth dilution method; type: functional, organism-based; conditions: Salmonella enterica subsp. enterica serovar Typhimurium
[7] = system: Klebsiella pneumoniae; experiment: Antibacterial activity against Klebsiella pneumoniae ATCC 4352 after 24 hrs by 2-fold microtiter broth dilution method; type: functional, organism-based

SMILES | MIC [1] | MIC [2] | Activity [3] | Activity [4] | Activity [5] | Activity [6] | Activity [7]
O=C(c1ccc(O)cc1)c1nccc2c1[nH]c1ccccc12 [EUDISTOMIN Y1] | 50 µg/mL (≈ 173 µM) |  |  |  |  |  | 
O=C(c1ccc(O)c(Br)c1)c1nccc2c1[nH]c1ccc(Br)cc12 [EUDISTOMIN Y4] |  | 200 µg/mL (≈ 448 µM) |  |  |  |  | 
O=C(c1cc(Br)c(O)c(Br)c1)c1nccc2c1[nH]c1ccc(Br)cc12 [EUDISTOMIN Y6] | 12.5 µg/mL (≈ 23.8 µM) | 25 µg/mL (≈ 47.6 µM) | inactive | inactive | inactive | inactive | inactive

Reference: ChEMBL document CHEMBL1144792, “Beta-carboline alkaloids from a Korean tunicate Eudistoma sp” (2008)
